The text below walks through data of PubChem BioAssay AID2305 (GlaxoSmithKline (GSK), 2010).

This assay relates to P. falciparum 3D7 growth, pLDH absorbance. Nature of the assay: P. falciparum 3D7 growth inhibition, dose response, strain 3D7 (AID 2305).

In turn, `O=C(Cc1ccc(NC(=O)c2ccc(O)c(-c3ccc(Cl)c(Cl)c3)c2)cc1)NCCN1CCOCC1` came in with an IC50 of 810 nM.

For `Cc1ccc2nc(-c3ccc(C=CC(=O)NC4CCN(Cc5ccccc5)CC4)cc3)[nH]c2c1`, the IC50 is 680 nM.

Take `COc1cc(NC(=O)/C=C/c2cc(F)cc(F)c2F)cc(OCCN2CCN(CCN3CCOCC3)CC2)c1`: the IC50 turned out to be 770 nM.

For the compound `O=C(Nc1cccc(-c2cccc(-c3nc4ccc(C(F)(F)F)cc4[nH]3)c2)c1)c1cnc[nH]1`, the IC50 amounted to 210 nM.

Compound `O=C(Nc1nc2cc(S(=O)(=O)NCCc3cccc(F)c3)ccc2n1CCCn1ccnc1)c1ccc(Cl)cc1` returned an IC50 of 1270 nM.

As for `CC1(C)[C@H]2CC[C@@H](CNc3nc(NCCc4cnc[nH]4)nc(NCc4cc(F)ccc4F)n3)[C@@H]1C2`, the half-maximal inhibitory concentration (IC50) is 310 nM.

`Nc1cccc(CNCc2cccc(-c3ccc(-c4nc5ccccc5[nH]4)s3)c2)c1` returned an IC50 of 600 nM.

`O=C(/C=C/c1cccs1)NC1CCC(CN2CCC(c3c[nH]c4ccccc34)CC2)CC1` (stereo unspecified) returned an IC50 of 1050 nM.

Regarding `CCCN(CCC)C(=S)N=Nc1c(O)[nH]c2ccccc12`, the IC50 amounted to 810 nM.

`COc1ccc2nccc(N3CCN(CCNCc4ccc5c(n4)NC(=O)CO5)CC3)c2n1` came in with an IC50 of 880 nM.

In the case of `Cc1[nH]c(C)c(-c2ccc(Sc3ccc(Cl)cc3)cc2)c(=O)c1Br`, the concentration for half-maximal inhibition (IC50) is 140 nM.

`CC(C)Cc1ccc(N2CCN(CCCCNC(=O)c3ccc(NC(=O)c4ccc(Cl)c(Cl)c4)cc3)CC2)cc1`: the IC50 was 1200 nM.

Consider `CCN(CC)C(=NCCCCCCN=C(/N=C(/N)Nc1ccc(C)cc1)N(CC)CC)/N=C(/N)Nc1ccc(C)cc1`, for which the IC50 is 540 nM.

In the case of `COc1ccc(C(=O)NC2CCN(c3ccnc4cc(Cl)ccc34)C2)cc1` (stereo unspecified), the IC50 worked out at 230 nM.

`COc1cc2nc(NCC3CCCCC3)nc(NCc3ccccc3)c2cc1OC`: the IC50 was determined as 140 nM.

On to `Cc1nc(-c2ccc(-c3ccc(C(=O)Nc4ccc(C(C)C)c(OCCN(C)C)c4)cc3)c(C)c2)no1`, for which the IC50 is 870 nM.

`CN1CCN(CCCN(Cc2ccc(-c3ccc(CNCc4ccc5c(c4)OCO5)cc3)cc2)C(=O)CCC2CCCC2)CC1` yielded a half-inhibitory concentration (IC50) of 950 nM.

As to `COc1cccc(C(=O)Nc2nonc2-c2ccc(OC)c(OC)c2)c1`, the IC50 stood at 800 nM.

The compound `COc1ccc2c(c1)CC(CNC[C@H](O)c1cccc(Cl)c1)CC2` (stereo partly specified) displayed an IC50 of 990 nM.

As to `CCCNC(=O)c1ccc(N2CCC(c3ccccc3C)CC2)nc1`, the IC50 was 1520 nM.

`Cc1cccc2[nH]c(-c3cccc(-c4cccc(NC(=O)C5CC(=O)Nc6ccccc65)c4)c3)nc12` (stereo unspecified) yielded an IC50 of 60 nM.

`CC[C@H](NC(=O)c1c(CN2CCC(N3CCCCC3)CC2)c(-c2ccccc2)nc2cc(O)ccc12)c1ccccc1`: the IC50 was 1370 nM.

With `CCOC(=O)NC1=NC(C)(C)N(OCCCOc2cc(Cl)c(Cl)cc2Cl)C(NC(=O)OCC)=N1`, the IC50 is 30 nM.

With `Cc1cc(N2CCCCC2)nc2ccc(NC(=O)c3cccc([N+](=O)[O-])c3)cc12`, the 50% inhibitory concentration (IC50) is 380 nM.

As to `Cc1cccc2[nH]c(-c3cccc(-c4ccc(NC(=O)NCc5ccccc5)cc4)c3)nc12`, the IC50 was 230 nM.

With `O=C(Nc1ccc(Cl)c(Cl)c1)C1CCC(=O)N1[C@@H](Cc1ccccc1)C(=O)NCCc1ccc(Cl)cc1` (stereo partly specified), the IC50 worked out at 1100 nM.

For the compound `CCN(CC)CCN(Cc1ccc(-c2ccc(C(F)(F)F)cc2)cc1)C(=O)Cn1c(CCc2cc(F)c(F)c(F)c2)nc(=O)c2ccccc21`, the half-inhibitory concentration (IC50) is 830 nM.

In the case of `O=S(=O)(c1ccccc1Cl)N1CCCCC(c2ccc(C(F)(F)F)cc2)=N1`, the IC50 came out at 940 nM.

In turn, `c1ccc2c(NCCCCCCCCCNc3ccnc4ccccc34)ccnc2c1` registered a half-maximal inhibitory concentration (IC50) of 120 nM.

For the compound `CCc1c[nH]c2c(N3CCCCS3(=O)=O)cc(C(=O)N[C@@H](Cc3ccccc3)[C@H](O)CNCc3cccc(OC)c3)cc12`, the IC50 worked out at 910 nM.

`Cn1cncc1C(=O)Nc1cccc(-c2ccc(-c3nc4ccccc4[nH]3)cc2)c1` registered a half-maximal inhibitory concentration (IC50) of 850 nM.

As to `CCCC(C)Nc1nc(C)cc(N[C@@H](CC(C)C)C(=O)NCCOc2ccccc2)n1` (stereo partly specified), the IC50 worked out at 1710 nM.

The compound `COc1cc(NCCCNCC2c3ccccc3Oc3ccccc32)nc2ccccc12` gave an IC50 of 330 nM.

Turning to `Cc1cc2c(NC(=O)NC3CCN(Cc4ccc(Cl)c(Cl)c4)CC3)cccc2cn1`, the IC50 was 680 nM.

For `CC(C)(C)c1ccc(CN2CCC(CNC(=O)c3cc(-c4ccccc4Cl)cs3)C2)cc1` (stereo unspecified), the IC50 amounted to 860 nM.

Turning to `N#Cc1ccc2c(c1)CN(C1CCC(NC(=O)C3=Cc4cc(Cl)ccc4OC3)CC1)CCC2` (stereo unspecified), the IC50 was 1330 nM.

Regarding `COc1ccc(CNCc2ccc(-c3ccc(-c4nc5c(C)cccc5[nH]4)cc3)cc2)cc1`, the IC50 came out at 340 nM.

In turn, `Cc1ccc(OC2CCN(CCCCC3(C)C(=O)Nc4ccccc43)CC2)cc1` (stereo unspecified) displayed an IC50 of 740 nM.

Compound `c1ccc(-c2ccc(CNCCCNc3nc4ccccc4[nH]3)cc2)cc1` returned a half-maximal inhibitory concentration (IC50) of 780 nM.

In turn, `CC(C)NCc1cccc(-c2ccc(-c3nc4ccc(C(F)(F)F)cc4[nH]3)cc2)c1` yielded an IC50 of 190 nM.

For `O=C(COc1ccccc1)NC1CCN(c2ccnc3cc(Cl)ccc23)C1` (stereo unspecified), the IC50 amounted to 700 nM.

Compound `NC(=O)c1ccc(C(=O)Nc2cccc(-c3ccc(-c4nc5ccc(C(F)(F)F)cc5[nH]4)cc3)c2)cc1` came in with an IC50 of 510 nM.

Compound `CC(C)CCN(Cc1cncn1Cc1ccccc1F)C(=O)c1cncc(-c2ccccc2)c1` yielded an IC50 of 790 nM.

For the compound `O=C(NC1CCN(CCC[C@]2(c3ccc(Cl)c(Cl)c3)CCCN(C(=O)c3ccccc3)C2)CC1)c1ccc(Cl)cc1`, the IC50 is 900 nM.

For `COc1ccc(NC(=O)Nc2ccc(Nc3nc(C)cc(N(C)C)n3)cc2)cc1`, the IC50 came out at 450 nM.

With `Cc1nnc(Sc2ncnc3scc(-c4ccc(F)cc4)c23)s1`, the IC50 was 810 nM.

As to `Fc1cccc(COc2ccc(Nc3ncnc4sc(C#C[C@H]5CC[C@H](CN6CCOCC6)N5)cc34)cc2Cl)c1`, the IC50 was determined as 920 nM.

For the compound `COc1cc(F)c2ncc(Cl)c([C@@H](O)CN3CCC(NCc4cc5c(cn4)OCCO5)CC3)c2c1`, the IC50 was 100 nM.

For the compound `CCOc1cccc(C(=O)Nc2nonc2-c2ccc(OC)c(OC)c2)c1`, the IC50 amounted to 1020 nM.

Regarding `COc1ccc(CCN(Cc2cccs2)C(=O)c2cc3sccc3n2C)cc1OC`, the IC50 was 350 nM.

For `CCN1CC[C@]2(c3cccc(OC)c3)Cc3nc4ccccc4c(-c4ccccc4)c3C[C@H]2C1`, the IC50 was 350 nM.

In the case of `COc1ccc(-c2cnc3[nH]cc(-c4ccc(C(=O)O)c(C)c4)c3c2)cn1`, the IC50 came out at 310 nM.

With `Cc1cc(C(=O)Nc2nc(-c3ccccn3)nc3ccsc23)no1`, the IC50 amounted to 810 nM.

As to `O=C(c1cc(C(=O)Nc2ccccc2F)c(=O)n(-c2ccccc2F)c1)c1cc(Cl)ccc1O`, the IC50 came to 710 nM.

The compound `Cc1[nH]c(C)c(-c2ccc(-c3ccc(F)cc3)cc2)c(=O)c1Cl` came in with an IC50 of 660 nM.

As for `CCCCN1CCCC[C@H]1[C@@H](O)c1ccnc2ccc(OCC)cc12`, the 50% inhibitory concentration (IC50) stood at 770 nM.

Compound `Cc1cc(Nc2nc(NCc3cccnc3)nc3ccccc23)n[nH]1` gave an IC50 of 850 nM.

In the case of `CCc1c(C)nc(-n2nc(C)cc2NC(=O)CCc2ccccc2)[nH]c1=O`, the half-maximal inhibitory concentration (IC50) was 750 nM.

Take `CN(C(=O)C(C)(C)Oc1ccc(Cl)cc1)C1CCN(CCCCCNC(=O)/C=C/c2ccc(Cl)c(Cl)c2)CC1`: the concentration for half-maximal inhibition (IC50) amounted to 920 nM.

On to `CS(=O)(=O)CCNCc1ccc(-c2ccc3c(Nc4ccc(F)cc4Cl)ccnc3c2)o1`, for which the IC50 worked out at 740 nM.

In turn, `COc1ccccc1CCNC(=O)c1cc(Br)cc(N2CCN(c3ccncc3)CC2)c1` yielded an IC50 of 1270 nM.

The term IC50 denotes the point on the concentration scale where inhibition reaches its midpoint. A lower IC50 goes with inhibition by little substance.
